From patent US20240415819A1, “MACROCYCLIC COMPOUNDS AS PROTEASOME SUBUNIT BETA TYPE-5 INHIBITORS” (Lead Discovery Center GmbH, priority 2021, published 2024)

Tests used:
[1] = biological target: T1, β5 subunit of the human immunoproteasome (IPS) (Homo sapiens, UniProt P28062); assay: β5 inhibition assay, human immunoproteasome (Suc-LLVY-AMC); assay type: biochemical; details: IC50 class, Suc-LLVY-AMC substrate
T1 construct: purchased Boston Biochem E-370
Outline: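 Human immunoproteasome (1 nM final) was preincubated 10 min at RT with compound in 100 mM HEPES pH 7.5, 50 mM NaCl, 0.02% SDS, 1 mM DTT. Suc-LLVY-AMC (22.6 μM final) was then added for 4 h at RT in the dark. After stopping with 1 μM bortezomib, AMC fluorescence was read (ex 355/em 460 nm).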

[2] = test system: A549 (human lung carcinoma cell line); assay: Glo assay of A549 cells (Table 3; ProteasomeGlo plating scheme); assay type: cell-based; details: Homo sapiens; A549 cells; read-out: PGLo A549
Outline: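 Luminescent read-out of cellular chymotrypsin-like proteasome activity: cells exposed to compound 105 min at 37° C., 5% CO2, then given Suc-LLVY-Glo reagent, shaken 2-5 min and kept dark 10-15 min before reading. Values are IC50 [nM].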

| IC50 [1] [µM] | IC50 [2] [µM] | SMILES |
| --- | --- | --- |
| < 0.1 | < 0.1 | CC(=O)N[C@H]1CC(=O)N2CCCC(CCOc3cccc(c3)CNC(=O)[C@H](CCc3ccccc3)NC1=O)C2 (stereo partly drawn) [Compound 364, N-((9S,12S)-8,11,14-trioxo-9-phenethyl-4-oxa-7,10-diaza-1(3,1)-piperidina-5(1,3)-benzenacyclotetradecaphane-12-yl)acetamide] |
| < 0.1 | < 0.1 | COC(C(=O)N[C@H]1CC(=O)N2CCCC(CCOc3ccc(C)c(c3)CNC(=O)[C@H](CCc3ccccc3)NC1=O)C2)c1ccc(N)cc1 (stereo partly drawn) [Compound 326, 2-(4-aminophenyl)-2-methoxy-N-((9S,12S)-5^4-methyl-8,11,14-trioxo-9-phenethyl-4-oxa-7,10-diaza-1(3,1)-piperidina-5(1,3)-benzenacyclotetradecaphane-12-yl)acetamide] |
| < 0.1 | 0.1 to 0.5 | Cc1ccc2cc1CNC(=O)[C@H](CCc1ccccc1)NC(=O)[C@@H](NC(=O)OCc1ccccc1)CCC(=O)N1CCC(CO2)C1 (stereo partly drawn) [Compound 349, benzyl ((8S,11S)-4^4-methyl-7,10,14-trioxo-8-phenethyl-3-oxa-6,9-diaza-1(3,1)-pyrrolidina-4(1,3)-benzenacyclotetradecaphane-11-yl)carbamate] |
| < 0.1 | 0.1 to 0.5 | COC(=O)N(CC1NC(=O)[C@@H](NC(C)=O)CC(=O)N2CCCC(CCOc3ccc(C)c(c3)CNC1=O)C2)c1ccccc1 (stereo partly drawn) [Compound 560, methyl (((12S)-12-acetamido-5^4-methyl-8,11,14-trioxo-4-oxa-7,10-diaza-1(3,1)-piperidina-5(1,3)-benzenacyclotetradecaphane-9-yl)methyl)(phenyl)carbamate] |
| < 0.1 | < 0.1 | Cc1ccc2cc1CNC(=O)C(CCc1ccncc1)NC(=O)[C@@H](NC(=O)Cc1ccc(N)cc1F)CC(=O)N1CCCC(CCO2)C1 (stereo partly drawn) [Compound 344, 2-(4-amino-2-fluorophenyl)-N-((12S)-5^4-methyl-8,11,14-trioxo-9-(2-(pyridin-4-yl)ethyl)-4-oxa-7,10-diaza-1(3,1)-piperidina-5(1,3)-benzenacyclotetradecaphane-12-yl)acetamide] |
| < 0.1 | 0.1 to 0.5 | CO[C@@H](C(=O)N[C@H]1CC(=O)N2CCCC(CCOc3ccc(C)c(c3)CNC(=O)C(c3cnn(C)c3)NC1=O)C2)c1ccccc1 (stereo partly drawn) [Compound 361, (2R)-2-methoxy-N-((12S)-5^4-methyl-9-(1-methyl-1H-pyrazol-4-yl)-8,11,14-trioxo-4-oxa-7,10-diaza-1(3,1)-piperidina-5(1,3)-benzenacyclotetradecaphane-12-yl)-2-phenylacetamide] |
| < 0.1 | < 0.1 | Cc1ccc2cc1CNC(=O)[C@H](CCc1ccccc1)NC(=O)[C@@H](NC(=O)Cc1cnc(N)s1)CC(=O)N1CCCC(CCO2)C1 (stereo partly drawn) [Compound 311, 2-(2-aminothiazol-5-yl)-N-((9S,12S)-5^4-methyl-8,11,14-trioxo-9-phenethyl-4-oxa-7,10-diaza-1(3,1)-piperidina-5(1,3)-benzenacyclotetradecaphane-12-yl)acetamide] |
| < 0.1 | 0.1 to 0.5 | CC(=O)N[C@H]1CC(=O)N2CCCC(CCOc3ccc(C)c(c3)CNC(=O)C(c3cnn(C)c3)NC1=O)C2 (stereo partly drawn) [Compound 552, N-((12S)-5^4-methyl-9-(1-methyl-1H-pyrazol-4-yl)-8,11,14-trioxo-4-oxa-7,10-diaza-1(3,1)-piperidina-5(1,3)-benzenacyclotetradecaphane-12-yl)acetamide] |
| < 0.1 | < 0.1 | Cc1ccc2cc1CNC(=O)C(CCc1cnc3nccnc3c1)NC(=O)[C@@H](NC(=O)OCc1ccccc1)CC(=O)N1CCCC(CCO2)C1 (stereo partly drawn) [Compound 505, benzyl ((12S)-5^4-methyl-8,11,14-trioxo-9-(2-(pyrido[2,3-b]pyrazin-7-yl)ethyl)-4-oxa-7,10-diaza-1(3,1)-piperidina-5(1,3)-benzenacyclotetradecaphane-12-yl)carbamate] |
| < 0.1 | < 0.1 | CC(=O)N[C@H]1CC(=O)N2CCCC(CCOc3ccc(C)c(c3)CNC(=O)C(c3cn(C)cn3)NC1=O)C2 (stereo partly drawn) [Compound 557, N-((12S)-5^4-methyl-9-(1-methyl-1H-imidazol-4-yl)-8,11,14-trioxo-4-oxa-7,10-diaza-1(3,1)-piperidina-5(1,3)-benzenacyclotetradecaphane-12-yl)acetamide] |
| < 0.1 | < 0.1 | Cc1ccc2cc1CNC(=O)[C@H](CCc1ccccc1)NC(=O)[C@@H](NC(=O)c1nc3ccccc3[nH]1)CC(=O)N1CCCC(CCO2)C1 (stereo partly drawn) [Compound 31, N-((9S,12S)-5^4-methyl-8,11,14-trioxo-9-phenethyl-4-oxa-7,10-diaza-1(3,1)-piperidina-5(1,3)-benzenacyclotetradecaphane-12-yl)-1H-benzo[d] imidazole-2-carboxamide] |
| < 0.1 | < 0.1 | CC(=O)N[C@H]1CC(=O)N2CCCC(CCOc3ccc(C)c(c3)CNC(=O)[C@H](CCc3ccccc3)NC1=O)C2 (stereo partly drawn) [Compound 33, N-((9S,12S)-5^4-methyl-8,11,14-trioxo-9-phenethyl-4-oxa-7,10-diaza-1(3,1)-piperidina-5(1,3)-benzenacyclotetradecaphane-12-yl)acetamide] |
| < 0.1 | < 0.1 | Cc1ccc2cc1CNC(=O)[C@H](CCc1ccccc1)NC(=O)[C@@H](NC(=O)OCc1ccccc1)CC(=O)N1CCCC(CCO2)C1 (stereo partly drawn) [Compound 7, benzyl ((9S,12S)-5^4-methyl-8,11,14-trioxo-9-phenethyl-4-oxa-7,10-diaza-1(3,1)-piperidina-5(1,3)-benzenacyclotetradecaphane-12-yl)carbamate] |
| < 0.1 | 0.1 to 0.5 | CCOC(C(=O)N[C@H]1CC(=O)N2CCCC(CCOc3ccc(C)c(c3)CNC(=O)[C@H](CCc3ccccc3)NC1=O)C2)c1ccc(N)cc1 (stereo partly drawn) [Compound 345, 2-(4-aminophenyl)-2-ethoxy-N-((9S,12S)-5^4-methyl-8,11,14-trioxo-9-phenethyl-4-oxa-7,10-diaza-1(3,1)-piperidina-5(1,3)-benzenacyclotetradecaphane-12-yl)acetamide] |
| < 0.1 | < 0.1 | Cc1ccc2cc1CNC(=O)[C@H](CCc1ccccc1)NC(=O)[C@@H](NC(=O)OCc1ccccc1)CCCCC(=O)N1CC(CCO2)C1 [Compound 353, benzyl ((9S,12S)-5^4-methyl-8,11,17-trioxo-9-phenethyl-4-oxa-7,10-diaza-1(3,1)-azetidina-5(1,3)-benzenacycloheptadecaphane-12-yl)carbamate] |
| < 0.1 | < 0.1 | Cc1ccc2cc1CNC(=O)[C@H](CCc1ccccc1)NC(=O)[C@@H](NC(=O)Cc1ccccc1F)CC(=O)N1CCCC(CCO2)C1 (stereo partly drawn) [Compound 333, 2-(2-fluorophenyl)-N-((9S,12S)-5^4-methyl-8,11,14-trioxo-9-phenethyl-4-oxa-7,10-diaza-1(3,1)-piperidina-5(1,3)-benzenacyclotetradecaphane-12-yl)acetamide] |
| < 0.1 | < 0.1 | CC(=O)N[C@H]1CC(=O)N2CCCC(CCOc3ccc(C)c(c3)CNC(=O)C(CCc3ccncc3)NC1=O)C2 (stereo partly drawn) [Compound 551, N-((12S)-5^4-methyl-8,11,14-trioxo-9-(2-(pyridin-4-yl)ethyl)-4-oxa-7,10-diaza-1(3,1)-piperidina-5(1,3)-benzenacyclotetradecaphane-12-yl)acetamide] |
